Measured values taken from patent publication US20110144213A1, “ANHYDROUS DEPIGMENTING COMPOSITIONS COMPRISING A SOLUBILIZED PHENOLIC COMPOUND” (priority 2008, published 2011).
Like-named read-outs stand apart in the source and are kept apart here.

Legend:
[1] = cited from earlier work
[2] = Stability of the active agents in solvent oils and lipophilic surfactants (HPLC assay against reference substance, colour); assay type: physicochemical; conditions: for Colour: 40° C.
Description: Stability of Hydroquinone in Solvent Oils and Lipophilic Surfactants
Assay technique by HPLC against reference substance.
The initial time (T0) is considered as 100%
The above table makes it possible to evaluate the stability of hydroquinone in the various solubilizing agents identified previously.
Stability of Rucinol in Solvent Oils and Lipophlic Surfactants
The initial time (T0) is considered as 100%.
The table below makes it possible to evaluate the stability of rucinol in the solubilizing agents identified previously.

[3] = Max. solubility of the active agents in solvent oils, lipophilic surfactants and alcoholic or glycolic solvents (HPLC); assay type: physicochemical; conditions: rucinol in all the solvents tested
Description: a) Solubilities and Stabilities of Hydroquinone in Solvent Oils and Lipophilic Surfactants Hydroquinone Solubilities
The above table makes it possible to identify which solvents are the most solubilizing for the active agent, for optimum selection of the ingredients of the composition. However, the choice of solvent will also be made on the basis of the results of the stability of hydroquinone in these solvents. […]
b) Solubilities and Stabilities of Rucinol in Solvent Oils and Lipophilic Surfactants […]
However, the optimum choice of solvent will also be made on the basis of the results of the stability of rucinol in these solvents.

Oc1ccc(O)cc1 [Hydroquinone, hydroquinone]
incidence of the irritation ([1]; 10% hydroquinone concentrations): relatively high
incidence of the irritation ([1]; concentration of 2%): virtually nonexistent
incidence of the irritation ([1]; preparations with a 5% dose): reduces greatly
Colour ([2]; hydroquinone in Ethanol/water (20/80), 1 MONTH): Dark
Colour ([2]; hydroquinone in Glycerol, 1 MONTH): Dark
Colour ([2]; hydroquinone in Propylene glycol, 3 MONTHS): Dark
stability of hydroquinone (in words) ([2]; in Cremophor EL, browning that becomes pronounced over time and with temperature): macroscopic instability
stability of hydroquinone (in words) ([2]; in Crodamol DA, Arlamol E and Labrasol, macroscopic observation of the colour): good chemical and physical stability
stability of hydroquinone (in words) ([2]; in solvents of the prior art such as glycols, RT and 40° C., absence of antioxidants): a colouration is observed

CCCCc1ccc(O)cc1O [Rucinol, 4-butylresorcinol]
solubility (in words) [3]: very good solubility
